The source of these data is article PMC9501983, “Transport and Permeation Properties of Dapivirine: Understanding Potential Drug-Drug Interactions” (Pharmaceutics, 2022).

This assay has as its target T1, MRP4 (Homo sapiens, UniProt O15439).
T1 sequence (O15439 1-1325): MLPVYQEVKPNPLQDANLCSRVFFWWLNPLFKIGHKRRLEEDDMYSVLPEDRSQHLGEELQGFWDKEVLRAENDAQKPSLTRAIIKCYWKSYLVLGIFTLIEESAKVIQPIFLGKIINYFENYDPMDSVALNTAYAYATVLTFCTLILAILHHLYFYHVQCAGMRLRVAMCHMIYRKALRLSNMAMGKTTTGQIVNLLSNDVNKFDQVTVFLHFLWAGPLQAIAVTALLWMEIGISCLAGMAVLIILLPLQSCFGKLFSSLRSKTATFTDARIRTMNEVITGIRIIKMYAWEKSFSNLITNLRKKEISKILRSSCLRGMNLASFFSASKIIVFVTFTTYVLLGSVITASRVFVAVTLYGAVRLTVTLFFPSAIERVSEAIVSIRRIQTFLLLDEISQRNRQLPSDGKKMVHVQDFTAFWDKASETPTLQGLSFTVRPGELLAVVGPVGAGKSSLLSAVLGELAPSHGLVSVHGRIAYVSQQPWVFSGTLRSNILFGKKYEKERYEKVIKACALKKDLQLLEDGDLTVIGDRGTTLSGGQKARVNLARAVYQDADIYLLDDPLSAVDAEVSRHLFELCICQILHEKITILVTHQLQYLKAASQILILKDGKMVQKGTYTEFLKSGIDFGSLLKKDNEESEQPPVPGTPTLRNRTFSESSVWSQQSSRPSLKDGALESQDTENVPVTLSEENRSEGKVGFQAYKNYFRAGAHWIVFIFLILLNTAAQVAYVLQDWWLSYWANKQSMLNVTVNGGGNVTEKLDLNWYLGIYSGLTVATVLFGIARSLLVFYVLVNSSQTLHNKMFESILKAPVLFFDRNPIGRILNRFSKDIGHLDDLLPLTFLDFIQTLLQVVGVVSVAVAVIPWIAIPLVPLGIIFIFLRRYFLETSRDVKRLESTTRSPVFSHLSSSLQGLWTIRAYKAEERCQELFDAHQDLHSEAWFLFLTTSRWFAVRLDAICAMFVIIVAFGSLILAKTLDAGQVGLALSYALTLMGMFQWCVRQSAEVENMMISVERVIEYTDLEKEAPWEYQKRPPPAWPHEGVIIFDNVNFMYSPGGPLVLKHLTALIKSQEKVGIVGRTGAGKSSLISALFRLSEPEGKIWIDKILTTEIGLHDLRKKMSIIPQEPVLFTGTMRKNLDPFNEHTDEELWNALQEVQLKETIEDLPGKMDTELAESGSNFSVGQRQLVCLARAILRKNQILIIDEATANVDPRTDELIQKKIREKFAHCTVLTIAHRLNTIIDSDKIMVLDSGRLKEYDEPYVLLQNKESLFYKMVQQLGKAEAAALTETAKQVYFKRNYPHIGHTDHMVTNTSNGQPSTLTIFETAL
The assay is described as follows: ATPase assay (ADP-Glo Max) in MRP4 vesicles. In kind it is biochemical. Set-up: purchased Thermo Fisher Scientific. The settings on record: DPV 20 μM; prostaglandin E2 20 μM; 60 min, 37 °C. How it is done: ATPase activity of MRP1 or MRP4 in transporter overexpressing membrane vesicles (10 μg of protein per assay) was measured by the ADP-Glo Max assay according to manufacturer’s protocol. The assay quantified the amount of ADP produced by the membrane vesicles over 60 min at 37 °C in the ATPase assay buffer (50 mM Tris-MOPS, 50 mM potassium chloride, 5 mM sodium azide, 2 mM dithiothreitol, 2 mM glutathione, 0.1 mM EGTA-Tris, and 10 mM magnesium chloride at pH 7.0). DPV was tested at 20 μM and compared to the baseline ATPase activity. A known MRP1 substrate, N-ethylmaleimide-S-glutathione (prepared by mixing N-ethylmaleimide and glutathione at a 1:1 molar ratio), at 10 mM and a known MRP4 substrate, prostaglandin E2, at 20 μM were used as positive controls. The reaction was initiated with 5 mM ATP and quenched with the ADP-Glo detection buffer. The amount of ADP produced was quantified by recording luminescence on a SpectraMax M3 plate reader (Molecular Devices, San Jose, CA, USA).
For orientation: ADP-Glo turns the ADP formed in a reaction into a luminescent signal.

As to `Cc1cc(C)c(Nc2ccnc(Nc3ccc(C#N)cc3)n2)c(C)c1` [DPV, dapivirine], the “ATPase activity in MRP4 vesicles, % of baseline” value was “no significant stimulation”.
